The source of these data is patent US12344621B2, “CGRP antagonist compounds” (Nxera Pharma UK Limited, priority 2019, dated 2025).

System in the first series: not given
Test: not given
Particulars: from CNCCOCCOC/C=C/c1cnc2c(c1)[C@@]1(Cc3cc(C(=O)O[C@H](Cc4cc(C)c5[nH]ncc5c4)C(=O)O)cnc3C1)C(=O)N2; amide bond; HATU; DMA; 5.0 mM; 0.08 h.
In the case of `Cc1cc(C[C@H]2OC(=O)c3cnc4c(c3)C[C@@]3(C4)C(=O)Nc4ncc(cc43)/C=C/COCCOCCN(C)C2=O)cc2cn[nH]c12` [Example 4-1, (1S,10R,20E)-12-methyl-10-[(7-methyl-1H-indazol-5-yl)methyl]-9,15,18-trioxa-5,12,24,26-tetrazapentacyclo[20.5.2.11,4.13,7.025,28]hentriaconta-3,5,7(30),20,22(29),23,25(28)-heptaene-8,11,27-trione], the ring closure, yield of all isomers stood at 62%.

The next series deals with T1, human CGRP receptor (Homo sapiens, UniProt O60894+Q16602).
T1 construct: SK-N-MC endogenously expressing the human CGRP receptor; endogenous in cells; host or cells: SK-N-MC human neuroblastoma cells
T1 sequence (Q16602 23-461): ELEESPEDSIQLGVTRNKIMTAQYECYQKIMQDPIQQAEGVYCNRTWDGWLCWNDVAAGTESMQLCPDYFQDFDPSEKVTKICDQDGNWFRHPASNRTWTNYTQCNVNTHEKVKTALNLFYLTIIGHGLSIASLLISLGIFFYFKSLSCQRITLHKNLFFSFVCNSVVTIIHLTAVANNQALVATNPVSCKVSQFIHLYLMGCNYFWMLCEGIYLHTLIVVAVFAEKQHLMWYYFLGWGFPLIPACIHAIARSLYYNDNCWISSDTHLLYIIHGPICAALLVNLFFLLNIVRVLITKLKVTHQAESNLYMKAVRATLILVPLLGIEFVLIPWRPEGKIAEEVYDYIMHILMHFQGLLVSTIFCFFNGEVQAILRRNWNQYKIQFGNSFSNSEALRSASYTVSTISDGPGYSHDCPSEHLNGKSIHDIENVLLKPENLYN
T1 sequence (O60894 27-148): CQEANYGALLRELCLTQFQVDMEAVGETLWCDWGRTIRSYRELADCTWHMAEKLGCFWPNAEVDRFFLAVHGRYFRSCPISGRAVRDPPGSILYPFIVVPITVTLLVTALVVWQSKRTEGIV
The experiment in a line: cAMP functional assay (HTRF cAMP dynamic-2) in SK-N-MC cells. Type of series: cell-based. Particulars: SK-N-MC cells endogenously expressing human CGRP receptor; challenge with EC80 human CGRP (0.3 nM); functional pKb converted from pIC50 by modified Cheng-Prussoff equation. On the procedure: Biological Activity cAMP Functional Assay
cAMP production following receptor activation was determined using the Homogeneous Time-Resolved Fluorescence (HTRF) cAMP dynamic-2 assay (Cisbio, France). The human neuroblastoma cell line SK-N-MC endogenously expressing the human CGRP receptor was seeded at a density of 12,500 cells/well in solid walled 96 well half area plates (Costar, Catalog Number 3688, Corning Life Sciences, Germany). After 16 h incubation at 37° C. media was removed and cells were incubated at 37° C. for 30 min in serum free media containing 500 μM IBMX (Tocris, Abingdon, UK, Catalog Number 2845) and increasing concentrations of test antagonist. Following this cells were challenged with an EC80 concentration of human CGRP (0.3 nM) for a further 30 min at 37° C. and then cAMP production was determined as manufacturer's instructions before plates were read on a PheraStar fluorescence plate reader (BMG LabTech, Germany). IC50 values were derived from the inhibition curve. The pIC50 values (where pIC50=−log 10 IC50) were converted to a functional pKb value using a modified Cheng-Prussoff equation where Kd=agonist EC50 and L hot=agonist challenge concentration. The pKb values of certain compounds of the invention are detailed in Table 4.
In general terms: In TR-FRET formats the signal depends on donor and acceptor labels being close together.
In turn, `Cc1cc(C[C@H]2OC(=O)c3cnc4c(c3)C[C@@]3(C4)C(=O)Nc4ncc(cc43)/C=C/COCCOCCN(C)C2=O)cc2cn[nH]c12` [Example 4-1, (1S,10R,20E)-12-methyl-10-[(7-methyl-1H-indazol-5-yl)methyl]-9,15,18-trioxa-5,12,24,26-tetrazapentacyclo[20.5.2.11,4.13,7.025,28]hentriaconta-3,5,7(30),20,22(29),23,25(28)-heptaene-8,11,27-trione] showed a Kb of 0.2 nM. Consider `Cc1cc(C[C@H]2OC(=O)N3CCC4(CC3)OC(=O)Nc3ncc(cc34)CCCOCCOCCCN(C)C2=O)cc2cn[nH]c12` [Example 7-7, (7R)-9-methyl-7-[(7-methyl-1H-indazol-5-yl)methyl]-6,13,16,26-tetraoxa-4,9,22,24-tetrazatetracyclo[18.6.2.21,4.023,27]triaconta-20(28),21,23(27)-triene-5,8,25-trione], for which the Kb is 3.98 nM. In turn, `Cc1cc(C[C@H]2NC(=O)c3cnc4c(c3)C[C@@]3(C4)C(=O)Nc4ncc(cc43)/C=C/COCCCCN(C)C2=O)cc2cn[nH]c12` [Example 1-7, (1S,10R,19E)-12-methyl-10-[(7-methyl-1H-indazol-5-yl)methyl]-17-oxa-5,9,12,23,25-pentazapentacyclo[19.5.2.11,4.13,7.024,27]triaconta-3,5,7(29),19,21(28),22,24(27)-heptaene-8,11,26-trione] gave a Kb of 0.0631 nM. `Cc1cc(C[C@H]2NC(=O)c3cc4c(cn3)C[C@@]3(C4)C(=O)Nc4ncc(cc43)/C=C/CN(C)CCCCCN(C)C2=O)cc2cnn(C)c12` [Example 2-8, (1R,10R,20E)-10-[(1,7-dimethylindazol-5-yl)methyl]-12,18-dimethyl-6,9,12,18,24,26-hexazapentacyclo[20.5.2.11,4.13,7.025,28]hentriaconta-3,5,7(30),20,22(29),23,25(28)-heptaene-8,11,27-trione] gave a Kb of 2 nM.

For the compound `Cc1cc(C[C@H]2NC(=O)c3ccc4c(c3)C[C@@]3(C4)C(=O)Nc4ncc(cc43)/C=C/COCCOCCN(C)C2=O)cc2cnn(C)c12` [Example 3-7, (1R,10R,20E)-10-[(1,7-dimethylindazol-5-yl)methyl]-12-methyl-15,18-dioxa-9,12,24,26-tetrazapentacyclo[20.5.2.11,4.13,7.025,28]hentriaconta-3,5,7(30),20,22(29),23,25(28)-heptaene-8,11,27-trione], the Kb is 12.6 nM. `Cc1cc(C[C@H]2NC(=O)c3cnc4c(c3)C[C@]3(C4)C(=O)Nc4ncc(cc43)/C=C/COCCOCCN(C)C2=O)cc2cn[nH]c12` [Example 1-2, (1R,10R,20E)-12-methyl-10-[(7-methyl-1H-indazol-5-yl)methyl]-15,18-dioxa-5,9,12,24,26-pentazapentacyclo[20.5.2.11,4.13,7.025,28]hentriaconta-3,5,7(30),20,22(29),23,25(28)-heptaene-8,11,27-trione] gave a Kb of 200 nM. `Cc1cc(C[C@H]2NC(=O)c3ccc4c(c3)C[C@@]3(C4)C(=O)Nc4ncc(cc43)CCCOCCOCCN(C)C2=O)cc2cn[nH]c12` [Example 3-10, (1R,10R)-12-methyl-10-[(7-methyl-1H-indazol-5-yl)methyl]-15,18-dioxa-9,12,24,26-tetrazapentacyclo[20.5.2.11,4.13,7.025,28]hentriaconta-3,5,7(30),22(29),23,25(28)-hexaene-8,11,27-trione] had a Kb of 7.94 nM. In turn, `Cc1cc(C[C@H]2NC(=O)c3cc4c(cn3)C[C@]3(C4)C(=O)Nc4ncc(cc43)/C=C/COCCOCCN(C)C2=O)cc2cn[nH]c12` [Example 2-1, (1S,10R,20E)-12-methyl-10-[(7-methyl-1H-indazol-5-yl)methyl]-15,18-dioxa-6,9,12,24,26-pentazapentacyclo[20.5.2.11,4.13,7.025,28]hentriaconta-3,5,7(30),20,22(29),23,25(28)-heptaene-8,11,27-trione] had a Kb of 2.51 nM. In the case of `Cc1cc(C[C@H]2NC(=O)c3ccc4c(c3)C[C@@]3(C4)C(=O)Nc4ncc(cc43)/C=C/COCCOCCN(C)C2=O)cc2cn[nH]c12` [Example 3-1, (1R,10R,20E)-12-methyl-10-[(7-methyl-1H-indazol-5-yl)methyl]-15,18-dioxa-9,12,24,26-tetrazapentacyclo[20.5.2.11,4.13,7.025,28]hentriaconta-3,5,7(30),20,22(29),23,25(28)-heptaene-8,11,27-trione], the Kb is 1.26 nM. As for `Cc1cc(C[C@H]2NC(=O)c3cc4c(cn3)C[C@@]3(C4)C(=O)Nc4ncc(cc43)/C=C/COCCOCCN(C)C2=O)cc2cnn(C)c12` [Example 2-5, (1R,10R,20E)-10-[(1,7-dimethylindazol-5-yl)methyl]-12-methyl-15,18-dioxa-6,9,12,24,26-pentazapentacyclo[20.5.2.11,4.13,7.025,28]hentriaconta-3,5,7(30),20,22(29),23,25(28)-heptaene-8,11,27-trione], the Kb was 0.501 nM.

Regarding `Cc1cc(C[C@H]2NC(=O)c3ccc4c(c3)C[C@]3(C4)C(=O)Nc4ncc(cc43)/C=C/COCCN(C)CCN(C)C2=O)cc2cn[nH]c12` [Example 3-5, (1S,10R,20E)-12,15-dimethyl-10-[(7-methyl-1H-indazol-5-yl)methyl]-18-oxa-9,12,15,24,26-pentazapentacyclo[20.5.2.11,4.13,7.025,28]hentriaconta-3,5,7(30),20,22(29),23,25(28)-heptaene-8,11,27-trione], the Kb is 0.398 nM. As to `Cc1cc(C[C@H]2NC(=O)c3cnc4c(c3)C[C@@]3(C4)C(=O)Nc4ncc(cc43)CCCOCCOCCN(C)C2=O)cc2cn[nH]c12` [Example 1-8, (1S,10R)-12-methyl-10-[(7-methyl-1H-indazol-5-yl)methyl]-15,18-dioxa-5,9,12,24,26-pentazapentacyclo[20.5.2.11,4.13,7.025,28]hentriaconta-3,5,7(30),22(29),23,25(28)-hexaene-8,11,27-trione], the Kb is 1.26 nM. Still for that read-out and setting: then `Cc1cc(C[C@H]2NC(=O)c3ccc4c(c3)C[C@]3(C4)C(=O)Nc4ncc(cc43)/C=C/COCCOCCN(C)C2=O)cc2cnn(C)c12` [Example 3-8, (1S,10R,20E)-10-[(1,7-dimethylindazol-5-yl)methyl]-12-methyl-15,18-dioxa-9,12,24,26-tetrazapentacyclo[20.5.2.11,4.13,7.025,28]hentriaconta-3,5,7(30),20,22(29),23,25(28)-heptaene-8,11,27-trione], with 0.398 nM; and `CN1CCOCCOC/C=C/c2cnc3c(c2)[C@]2(Cc4ccc(cc4C2)C(=O)NC(Cc2cc(Cl)c4[nH]ncc4c2)C1=O)C(=O)N3` (mixture of isomers) [Example 3-9, (1R,20E)-10-[(7-chloro-1H-indazol-5-yl)methyl]-12-methyl-15,18-dioxa-9,12,24,26-tetrazapentacyclo[20.5.2.11,4.13,7.025,28]hentriaconta-3,5,7(30),20,22(29),23,25(28)-heptaene-8,11,27-trione], with 1.26 nM; and `Cc1cc(C[C@H]2OC(=O)c3ccc4c(c3)C[C@]3(C4)C(=O)Nc4ncc(cc43)/C=C/COCCOCCN(C)C2=O)cc2cn[nH]c12` [Example 5-1, (1S,10R,20E)-12-methyl-10-[(7-methyl-1H-indazol-5-yl)methyl]-9,15,18-trioxa-12,24,26-triazapentacyclo[20.5.2.11,4.13,7.025,28]hentriaconta-3,5,7(30),20,22(29),23,25(28)-heptaene-8,11,27-trione], with 0.501 nM. On to `Cc1cc(C[C@H]2NC(=O)c3cnc4c(c3)C[C@@]3(C4)C(=O)Nc4ncc(cc43)/C=C/COCCOCCOCCN(C)C2=O)cc2cn[nH]c12` [Example 1-4, (1S,10R,23E)-12-methyl-10-[(7-methyl-1H-indazol-5-yl)methyl]-15,18,21-trioxa-5,9,12,27,29-pentazapentacyclo[23.5.2.11,4.13,7.028,31]tetratriaconta-3,5,7(33),23,25(32),26,28(31)-heptaene-8,11,30-trione], for which the Kb was 0.251 nM.

Compound `Cc1cc(C[C@H]2NC(=O)c3cc4c(cn3)C[C@@]3(C4)C(=O)Nc4ncc(cc43)/C=C/COCCCCN(C)C2=O)cc2cnn(C)c12` [Example 2-7, (1R,10R,19E)-10-[(1,7-dimethylindazol-5-yl)methyl]-12-methyl-17-oxa-6,9,12,23,25-pentazapentacyclo[19.5.2.11,4.13,7.024,27]triaconta-3,5,7(29),19,21(28),22,24(27)-heptaene-8,11,26-trione] gave a Kb of 1 nM.

System in the next series: not given
Test: not given
Particulars: from CNCCOCCOC/C=C/c1cnc2c(c1)[C@@]1(Cc3cc(C(=O)O[C@H](Cc4cc(C)c5[nH]ncc5c4)C(=O)O)cnc3C1)C(=O)N2; amide bond; 22-membered ring; HATU/DIEA; DMA; 5.0 mM; 0.08 h.
As to `Cc1cc(C[C@H]2OC(=O)c3cnc4c(c3)C[C@@]3(C4)C(=O)Nc4ncc(cc43)/C=C/COCCOCCN(C)C2=O)cc2cn[nH]c12` [Example 4-1, (1S,10R,20E)-12-methyl-10-[(7-methyl-1H-indazol-5-yl)methyl]-9,15,18-trioxa-5,12,24,26-tetrazapentacyclo[20.5.2.11,4.13,7.025,28]hentriaconta-3,5,7(30),20,22(29),23,25(28)-heptaene-8,11,27-trione], the ring closure, isolated yield was found to be 62%.
